Results on 23 molecules are retold here after ChEMBL document CHEMBL1131405, “Novel bisphosphonate inhibitors of phosphoglycerate kinase” (Bioorg Med Chem Lett, 1998).

Data set [1] is described as follows: Dissociation constant (pKa4). In kind it is physicochemical. The following applies: read-out: pKa4.
Data set [2] can be described thus: Dissociation constant (pKa3). It is filed as physicochemical. The following applies: read-out: pKa3.

For the molecule `O=P(O)(O)Cc1cccc(CP(=O)(O)O)c1`, the pKa in data set [1] was 7.71; in data set [2], 7.11.

`O=P(O)(O)C(F)c1cccc(C(F)P(=O)(O)O)n1` (stereo unspecified): the results for the pKa in data set [1] and in data set [2] were 5.3 and 5.18, respectively.

Consider `O=P(O)(O)Cc1cccc(CP(=O)(O)O)n1`, for which the pKa was found to be 8.49 in data set [1] and 6.7 in data set [2].

As for `O=P(O)(O)Cc1cccc(C(O)P(=O)(O)O)c1` (stereo unspecified), the pKa worked out at 7.29 in data set [1] and 6.98 in data set [2].

Regarding `Cc1cc(C)c(CP(=O)(O)O)cc1CP(=O)(O)O`, the pKa amounted to 7.78 in data set [1] and 7.24 in data set [2].

In the case of `O=P(O)(O)C(F)(F)c1cccc(C(F)(F)P(=O)(O)O)n1`, the pKa in data set [1] is 5.3; in data set [2], 5.18.

As to `O=P(O)(O)Cc1ccccc1CP(=O)(O)O`, the figures for the pKa in data set [1] and in data set [2] were 8.53 and 7.1, respectively.

As to `O=P(O)(O)Cc1cccc(P(=O)(O)O)c1`, the pKa in data set [1] was 7.61; in data set [2] it was 6.47.

Turning to `Cc1cc(C)c(CP(=O)(O)O)c(C)c1CP(=O)(O)O`, the figures for the pKa in data set [1] and in data set [2] were 8.16 and 7.4, respectively.

With `O=P(O)(O)C(F)c1ccc(C(F)P(=O)(O)O)cc1` (stereo unspecified), the pKa in data set [1] came to 6.37; in data set [2] it was 6.02.

As to `O=P(O)(O)c1cccc(C(F)P(=O)(O)O)c1` (stereo unspecified), the pKa in data set [1] is 6.99; in data set [2] it was 5.8.

Take `O=P(O)(O)c1cccc(C(O)P(=O)(O)O)c1` (stereo unspecified): the results for the pKa in data set [1] and in data set [2] were 7.46 and 6.55, respectively.

On to `Cc1cc(C)c(C(F)(F)P(=O)(O)O)cc1C(F)(F)P(=O)(O)O`, for which the pKa in data set [1] came out at 5.92; in data set [2], 5.33.

Turning to `O=P(O)(O)C(O)c1cccc(C(O)P(=O)(O)O)c1` (stereo unspecified), the pKa in data set [1] was determined as 7.23; in data set [2], 6.78.

In the case of `O=P(O)(O)Cc1ccc(C(F)P(=O)(O)O)cc1` (stereo unspecified), the pKa was 7.72 in data set [1] and 6.3 in data set [2].

As to `O=P(O)(O)Cc1ccc(C(F)(F)P(=O)(O)O)cc1`, the pKa in data set [1] stood at 6.63; in data set [2], 5.27.

On to `O=P(O)(O)c1cccc(C(F)(F)P(=O)(O)O)c1`, for which the pKa in data set [1] is 6.9; in data set [2], 5.61.

For `C=C(CP(=O)(O)O)CP(=O)(O)O`, the pKa was determined as 7.45 in data set [1] and 6.45 in data set [2].

On to `O=P(O)(O)C(F)c1cccc(C(F)P(=O)(O)O)c1` (stereo unspecified), for which the pKa in data set [1] was 6.37; in data set [2], 6.01.

Consider `O=P(O)(O)C(F)(F)c1ccc(C(F)(F)P(=O)(O)O)cc1`, for which the figures for the pKa in data set [1] and in data set [2] were 5.6 and 4.82, respectively.

With `O=P(O)(O)C(O)c1cccc(C(O)P(=O)(O)O)n1` (stereo unspecified), the pKa in data set [1] was determined as 7.58; in data set [2], 6.57.

On to `O=P(O)(O)Cc1ccc(CP(=O)(O)O)cc1`, for which the results for the pKa in data set [1] and in data set [2] were 7.49 and 7.03, respectively.

`O=P(O)(O)Cc1cccc(C(F)(F)P(=O)(O)O)c1`: the pKa was 5.84 in data set [1] and 5.04 in data set [2].
